pIC50: −log10 of the molar value.

In the first test the target is T1, CFTR (Homo sapiens, UniProt P13569).
T1 construct: endogenous in cells; host or cells: T84 human colonic cells (ECACC)
T1 sequence (P13569 whole entry): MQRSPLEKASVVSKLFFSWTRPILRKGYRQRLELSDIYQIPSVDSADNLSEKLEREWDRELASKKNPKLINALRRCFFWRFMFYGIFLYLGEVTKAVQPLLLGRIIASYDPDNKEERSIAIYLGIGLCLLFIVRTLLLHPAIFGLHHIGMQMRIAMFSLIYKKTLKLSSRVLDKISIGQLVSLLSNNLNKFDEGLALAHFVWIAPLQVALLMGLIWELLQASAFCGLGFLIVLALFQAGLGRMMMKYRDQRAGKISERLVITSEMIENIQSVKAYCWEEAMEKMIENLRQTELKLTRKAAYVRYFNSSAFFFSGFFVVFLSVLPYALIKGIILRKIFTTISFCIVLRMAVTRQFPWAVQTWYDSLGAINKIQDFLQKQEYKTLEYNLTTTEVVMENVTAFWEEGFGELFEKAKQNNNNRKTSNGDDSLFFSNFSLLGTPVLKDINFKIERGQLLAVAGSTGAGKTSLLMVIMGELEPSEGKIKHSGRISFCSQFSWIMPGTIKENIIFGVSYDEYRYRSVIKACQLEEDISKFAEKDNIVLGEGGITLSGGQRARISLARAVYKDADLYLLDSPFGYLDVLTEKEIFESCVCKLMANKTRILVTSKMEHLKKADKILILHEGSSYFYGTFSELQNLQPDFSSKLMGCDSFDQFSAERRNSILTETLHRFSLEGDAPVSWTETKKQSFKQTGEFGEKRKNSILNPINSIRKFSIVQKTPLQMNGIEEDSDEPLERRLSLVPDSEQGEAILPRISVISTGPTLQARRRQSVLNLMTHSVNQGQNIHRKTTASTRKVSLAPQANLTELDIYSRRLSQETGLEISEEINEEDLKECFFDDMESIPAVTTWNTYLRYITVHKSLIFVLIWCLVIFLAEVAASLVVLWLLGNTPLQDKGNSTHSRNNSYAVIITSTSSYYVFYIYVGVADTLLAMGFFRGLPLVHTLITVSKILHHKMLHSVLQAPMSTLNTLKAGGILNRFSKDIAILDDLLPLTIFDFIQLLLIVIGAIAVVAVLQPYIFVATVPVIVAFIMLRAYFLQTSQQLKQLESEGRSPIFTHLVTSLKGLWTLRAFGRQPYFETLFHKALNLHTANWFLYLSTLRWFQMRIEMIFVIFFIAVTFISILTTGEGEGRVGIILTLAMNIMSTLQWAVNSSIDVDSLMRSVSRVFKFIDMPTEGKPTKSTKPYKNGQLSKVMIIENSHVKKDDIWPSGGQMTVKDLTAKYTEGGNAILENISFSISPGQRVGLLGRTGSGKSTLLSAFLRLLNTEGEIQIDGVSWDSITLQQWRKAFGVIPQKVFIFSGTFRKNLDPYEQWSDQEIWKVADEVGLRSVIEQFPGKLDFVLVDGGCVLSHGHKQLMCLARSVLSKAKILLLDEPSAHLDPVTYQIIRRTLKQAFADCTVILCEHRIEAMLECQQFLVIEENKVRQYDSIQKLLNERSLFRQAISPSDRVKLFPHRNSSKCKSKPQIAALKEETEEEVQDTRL
As to the kind of experiment: T84 assay (FLIPR membrane potential dye, forskolin/IBMX-stimulated CFTR channel activity). Particulars: imidazole and triazole-containing compounds (Tables 13, 14, 14′), read-out: IC50 (μM) (T84 assay). Type of test: cell-based. An outline of the steps:
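Fluorescence from a membrane potential dye in T84 monolayers (HBSS with 10 mM Hepes) is followed each second for 150 s. Cells are exposed to test compound during the 45 min dye loading, then challenged with forskolin (10 μM) and IBMX (100 μM) to open CFTR. Inhibitors suppress the depolarization-driven fluorescence increase.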
Regarding `COCCOCCOCCOCCN(Cc1ccc(Cl)c(Cl)c1)C(=O)c1ncn(-c2cc(Cl)c(O)c(Cl)c2)n1` [111i, 1-(3,5-dichloro-4-hydroxyphenyl)-N-(3,4-dichlorobenzyl)-N-(2,5,8,11-tetraoxatridecan-13-yl)-1H-1,2,4-triazole-3-carboxamide], the half-maximal inhibitory concentration (IC50) (as a rule, the midpoint of a concentration-inhibition curve) is 9.17 µM.

Take `O=C(NCc1ccc(Cl)cc1)c1ncn(-c2cc(Cl)c(O)c(Cl)c2)n1` [48i, N-(4-chlorobenzyl)-1-(3,5-dichloro-4-hydroxyphenyl)-1H-1,2,4-triazole-3-carboxamide]: the IC50 was found to be 8.67 µM.

On to `O=C(NCc1cc(Cl)ccc1F)c1ncn(-c2cc(Cl)c(O)c(Cl)c2)n1` [27i, N-(5-chloro-2-fluorobenzyl)-1-(3,5-dichloro-4-hydroxyphenyl)-1H-1,2,4-triazole-3-carboxamide], for which the IC50 was 24.4 µM.

As for `COCCOCCOCCOCCOCCOCCOCCOCCN(Cc1ccc(C(C)(C)C)cc1)C(=O)c1ncn(-c2cc(Cl)c(O)c(Cl)c2)n1` [117i, N-(4-tert-butylbenzyl)-1-(3,5-dichloro-4-hydroxyphenyl)-N-(2,5,8,11,14,17,20,23-octaoxapentacosan-25-yl)-1H-1,2,4-triazole-3-carboxamide], the 50% inhibitory concentration (IC50) worked out at 21.4 µM.

Turning to `CC(NC(=O)c1ncn(-c2cc(Cl)c(O)c(Cl)c2)n1)c1ccc(F)cc1` (stereo not shown) [9i, 1-(3,5-dichloro-4-hydroxyphenyl)-N-(1-(4-fluorophenyl)ethyl)-1H-1,2,4-triazole-3-carboxamide], the IC50 was found to be 17.6 µM.

With `O=C(NCc1ccc(F)c(F)c1)c1ncn(-c2cc(Cl)c(O)c(Cl)c2)n1` [42i, 1-(3,5-dichloro-4-hydroxyphenyl)-N-(3,4-difluorobenzyl)-1H-1,2,4-triazole-3-carboxamide], the half-inhibitory concentration (IC50) is 15.9 µM.

Regarding `CN(Cc1cccc(C(F)(F)F)c1)C(=O)c1ncn(-c2cc(Cl)c(O)c(Cl)c2)n1` [6i, 1-(3,5-dichloro-4-hydroxyphenyl)-N-methyl-N-(3-(trifluoromethyl)benzyl)-1H-1,2,4-triazole-3-carboxamide], the IC50 stood at 16.2 µM.

Regarding `COCCOCCOCCOCCON(Cc1ccc(Oc2ccccc2)cc1)C(=O)c1ncn(-c2cc(Cl)c(O)c(Cl)c2)n1` [122i, N-(2,5,8,11-tetraoxatridecan-13-yloxy)-1-(3,5-dichloro-4-hydroxyphenyl)-N-(4-phenoxybenzyl)-1H-1,2,4-triazole-3-carboxamide], the concentration for half-maximal inhibition (IC50) was found to be 5.11 µM.

Still in this test, the particulars now being: oxadiazole-containing compounds (a series), average of at least 2 runs unless annotated n = 1, read-out: IC50.
As for `O=C(NCc1cccc(C(F)(F)F)c1)c1nc(-c2cc(Cl)c(O)c(Cl)c2)no1` [134a, 3-(3,5-dichloro-4-hydroxyphenyl)-N-(3-(trifluoromethyl)benzyl)-1,2,4-oxadiazole-5-carboxamide], the pIC50 (commonly the IC50 on a negative log10 scale, so that one unit is a factor of ten) was 5.06.

As to `Cc1ccc(CNC(=O)c2noc(-c3cc(Cl)c(O)c(Cl)c3)n2)cc1` [81a, 5-(3,5-dichloro-4-hydroxyphenyl)-N-(4-methylbenzyl)-1,2,4-oxadiazole-3-carboxamide], the pIC50 is 4.83.

In the case of `O=C(NCc1ccccc1C(F)(F)F)c1nc(-c2cc(Cl)c(O)c(Cl)c2)no1` [129a, 3-(3,5-dichloro-4-hydroxyphenyl)-N-(2-(trifluoromethyl)benzyl)-1,2,4-oxadiazole-5-carboxamide], the pIC50 is 4.78.

`O=C(c1noc(-c2cc(Cl)c(O)c(Cl)c2)n1)N1CCC(Cc2ccccc2)CC1` [78a, (4-benzylpiperidin-l-yl)(5-(3,5-dichloro-4-hydroxyphenyl)-1,2,4-oxadiazol-3-yl)methanone]: the pIC50 was 4.95.

As to `O=C(c1nc(-c2cc(Cl)c(O)c(Cl)c2)no1)N1CCN(c2cccc(C(F)(F)F)c2)CC1` [8a, (3-(3,5-dichloro-4-hydroxyphenyl)-1,2,4-oxadiazol-5-yl)(4-(3-(trifluoromethyl)phenyl) 4-(3-(trifluoromethyl)phenyl)piperazin-1-yl)methanone], the pIC50 is 5.16.

For the compound `CN(Cc1ccc(C(C)(C)C)cc1)C(=O)c1nc(-c2cc(Cl)c(O)c(Cl)c2)no1` [148a, N-(4-tert-butylbenzyl)-3-(3,5-dichloro-4-hydroxyphenyl)-N-methyl-1,2,4-oxadiazole-5-carboxamide], the negative logarithm of the IC50 (pIC50) was 5.08.

As to `O=C(NCc1cccc(C(F)(F)F)c1)c1nc(-c2cc(Br)c(O)c(Br)c2)no1` [27a, 3-(3,5-dibromo-4-hydroxyphenyl)-N-(3-(trifluoromethyl)benzyl)-1,2,4-oxadiazole-5-carboxamide], the pIC50 is 4.83.

Consider `C#CCN(Cc1cccc(C(F)(F)F)c1)C(=O)c1nc(-c2cc(Cl)c(O)c(Cl)c2)no1` [109a, 3-(3,5-dichloro-4-hydroxyphenyl)-N-(prop-2-ynyl)-N-(3-(trifluoromethyl)benzyl)-1,2,4-oxadiazole-5-carboxamide], for which the pIC50 is 5.27.

Consider `O=C(NCc1cccc(OC(F)F)c1)c1noc(-c2cc(Cl)c(O)c(Cl)c2)n1` [163a, 5-(3,5-dichloro-4-hydroxyphenyl)-N-(3-(difluoromethoxy)benzyl)-1,2,4-oxadiazole-3-carboxamide], for which the pIC50 is 4.94.

Regarding `O=C(c1nc(-c2cc(Br)c(O)c(Br)c2)no1)N1CCN(c2ccc(F)cc2F)CC1` [31a], the pIC50 is 4.77.

For the compound `O=C(c1noc(-c2cc(Cl)c(O)c(Cl)c2)n1)N(CCNCc1ccccc1)Cc1ccccc1` [119a, N-benzyl-N-(2-(benzylamino)ethyl)-5-(3,5-dichloro-4-hydroxyphenyl)-1,2,4-oxadiazole-3-carboxamide], the pIC50 was 4.62.

Consider `O=C(NCc1ccc(F)c(C(F)(F)F)c1)c1noc(-c2cc(Cl)c(O)c(Cl)c2)n1` [159a, 5-(3,5-dichloro-4-hydroxyphenyl)-N-(4-fluoro-3-(trifluoromethyl)benzyl)-1,2,4-oxadiazole-3-carboxamide], for which the negative-log IC50 (pIC50) is 5.32.

With `CN(Cc1ccc(Cl)cc1)C(=O)c1noc(-c2cc(Cl)c(O)c(Cl)c2)n1` [84a, N-(4-chlorobenzyl)-5-(3,5-dichloro-4-hydroxyphenyl)-N-methyl-1,2,4-oxadiazole-3-carboxamide], the negative-log IC50 (pIC50) was 5.39.

On to `CN(Cc1ccc(-c2cncnc2)cc1)C(=O)c1nc(-c2cc(Cl)c(O)c(Cl)c2)no1` [188a, 3-(3,5-dichloro-4-hydroxyphenyl)-N-methyl-N-(4-(pyrimidin-5-yl)benzyl)-1,2,4-oxadiazole-5-carboxamide], for which the pIC50 is 5.24.

`CN(Cc1cccc(-c2cccnc2)c1)C(=O)c1nc(-c2cc(Cl)c(O)c(Cl)c2)no1` [185a, 3-(3,5-dichloro-4-hydroxyphenyl)-N-methyl-N-(3-(pyridin-3-yl)benzyl)-1,2,4-oxadiazole-5-carboxamide]: the negative-log IC50 (pIC50) was 5.29.

`O=C(c1nc(-c2cc(Cl)c(O)c(Cl)c2)no1)N(CCO)Cc1ccccc1` [121a, N-benzyl-3-(3,5-dichloro-4-hydroxyphenyl)-N-(2-hydroxyethyl)-1,2,4-oxadiazole-5-carboxamide]: the pIC50 was 4.72.

For the compound `COc1ccc(Oc2ccc(CNC(=O)c3nc(-c4cc(Cl)c(O)c(Cl)c4)no3)cc2)cc1Cl` [195a, N-(4-(3-chloro-4-methoxyphenoxy)benzyl)-3-(3,5-dichloro-4-hydroxyphenyl)-1,2,4-oxadiazole-5-carboxamide], the negative logarithm of the IC50 (pIC50) is 5.05.

In the case of `O=C(NCc1ccc(Cn2cccn2)cc1)c1noc(-c2cc(Cl)c(O)c(Cl)c2)n1` [156a, N-(4-((1H-pyrazol-1-yl)methyl)benzyl)-5-(3,5-dichloro-4-hydroxyphenyl)-1,2,4-oxadiazole-3-carboxamide], the pIC50 was 4.68.

As for `CCOc1ccc(Oc2ccc(CNC(=O)c3nc(-c4cc(Cl)c(O)c(Cl)c4)no3)cc2)cc1Cl` [184a, N-(4-(3-chloro-4-ethoxyphenoxy)benzyl)-3-(3,5-dichloro-4-hydroxyphenyl)-1,2,4-oxadiazole-5-carboxamide], the negative-log IC50 (pIC50) is 4.87.

In the case of `O=C(NCc1ccc(Oc2ccccc2)cc1)c1noc(-c2cc(Cl)c(O)c(Cl)c2)n1` [79a, 5-(3,5-dichloro-4-hydroxyphenyl)-N-(4-phenoxybenzyl)-1,2,4-oxadiazole-3-carboxamide], the negative logarithm of the IC50 (pIC50) was 4.76.

With `C=CCN(Cc1cccc(OC(F)(F)F)c1)C(=O)c1nc(-c2cc(Cl)c(O)c(Cl)c2)no1` [169a, N-allyl-3-(3,5-dichloro-4-hydroxyphenyl)-N-(3-(trifluoromethoxy)benzyl)-1,2,4-oxadiazole-5-carboxamide], the negative logarithm of the IC50 (pIC50) is 5.53.

As for `CCN(Cc1cccc(C(F)(F)F)c1)C(=O)c1nc(-c2cc(Br)c(O)c(Br)c2)no1` [60a, 3-(3,5-Dibromo-4-hydroxyphenyl)-N-ethyl-N-(3-(trifluormethyl)benzyl)-1,2,4-oxadiazole-5-carboxamide], the pIC50 was 4.90.

Turning to `O=C(c1nc(-c2cc(Cl)c(O)c(Cl)c2)no1)N1CCC(Cc2ccccc2)CC1` [204a, (4-benzylpiperidin-1-yl)(3-(3,5-dichloro-4-hydroxyphenyl)-1,2,4-oxadiazol-5-yl)methanone], the negative-log IC50 (pIC50) was 5.05.

On to `O=C(NCc1ccccc1C(F)(F)F)c1noc(-c2cc(Cl)c(O)c(Cl)c2)n1` [88a, 5-(3,5-dichloro-4-hydroxyphenyl)-N-(2-(trifluoromethyl)benzyl)-1,2,4-oxadiazole-3-carboxamide], for which the pIC50 was 5.21.

In the case of `O=C(Nc1ccc(Oc2ccc(C(F)(F)F)cc2)cc1)c1nc(-c2cc(Br)c(O)c(Br)c2)no1` [34a, 3-(3,5-dibromo-4-hydroxyphenyl)-N-(4-(4-(trifluoromethyl)phenoxy)phenyl)-1,2,4-oxadiazole-5-carboxamide], the pIC50 was 4.74.

Consider `O=C(NCc1ccc(Oc2ccc(Cl)c(C(F)(F)F)c2)cc1)c1nc(-c2cc(Cl)c(O)c(Cl)c2)no1` [202a, N-(4-(4-chloro-3-(trifluoromethyl)phenoxy)benzyl)-3-(3,5-dichloro-4-hydroxyphenyl)-1,2,4-oxadiazole-5-carboxamide], for which the pIC50 is 4.63.
